Results published in US20080129961A1, “METHOD AND APPARATUS FOR MEASURING QUANTITY OF A FLUOROCHROME IN A BIOLOGICAL ENVIRONMENT” (priority 2006, published 2008).

What was measured:
[1] = Solubility and fluorescence behaviour of ICG in serum and vitreous humor
Description: ICG (Acros Organics, Fair Lawn, N.J.) was dissolved in PBS, pH 7.4, with 0.1% Tween 20 at 25° C. to make the aqueous standards. Fluorescence of a series of 1:2 dilutions were made with a spectrofluorometer beginning with a maximum concentration of 100 ng/ml down to a “blank” comprising PBS, pH 7.4, with 0.1% Tween with essentially no ICG (only trace amounts).

[2] = pH stability of ICG emission intensity; type: physicochemical

solubility in serum and vitreous humor after pre-dissolution ([1]; first dissolved in PBS, pH 7.4, 0.1% Tween 20 (≧1000 ng/ml), then mixed with bovine vitreous humor or human serum): remain in solution
spectra and quantum yield in serum and vitreous humor compared to ICG in PBS with 0.1% Tween 20 ([1]; first dissolved in PBS, pH 7.4, 0.1% Tween 20, then mixed with bovine vitreous humor or human serum): maintain its spectra and quantum yield
solubility when mixed directly with serum or vitreous humor ([1]; mixed directly with serum or vitreous humor): not completely soluble
pH range across which emission intensity is stable [2]: 5-10 pH
SMILES: CC1(C)C(/C=C/C=C/C=C/C=C2\N(CCCCS(=O)(=O)[O-])c3ccc4ccccc4c3C2(C)C)=[N+](CCCCS(=O)(=O)[O-])c2ccc3ccccc3c21.[Na+] [ICG, indocyanin green]
